{"source": "patent US6767890B1", "about": "“Peptides having anti-cancer and anti-inflammatory activity” (priority 1998, dated 2004)", "key": {"[1]": {"molecular_target": "T1, histamine H3 receptor (Cavia porcellus, UniProt Q9JI35)", "T1 construct": "ileum obtained from Duncan Hartley derived male or female guinea pigs; from tissue; host or cells: guinea pig ileum segment, field-stimulated", "T1 sequence (Q9JI35 whole entry)": "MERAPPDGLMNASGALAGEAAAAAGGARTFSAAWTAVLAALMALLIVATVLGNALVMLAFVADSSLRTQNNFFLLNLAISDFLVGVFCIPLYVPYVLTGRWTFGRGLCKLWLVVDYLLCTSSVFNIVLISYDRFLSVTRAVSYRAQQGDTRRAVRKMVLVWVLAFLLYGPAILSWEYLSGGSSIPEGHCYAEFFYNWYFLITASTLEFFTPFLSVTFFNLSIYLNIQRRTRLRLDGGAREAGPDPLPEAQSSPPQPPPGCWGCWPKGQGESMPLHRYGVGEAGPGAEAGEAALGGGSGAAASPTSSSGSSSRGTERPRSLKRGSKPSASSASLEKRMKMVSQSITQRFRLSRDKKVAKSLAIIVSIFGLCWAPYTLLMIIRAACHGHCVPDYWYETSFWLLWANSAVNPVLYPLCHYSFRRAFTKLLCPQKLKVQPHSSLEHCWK", "assay": "Histamine H3 Agonism/Antagonism, guinea pig ileum", "type": "cell-based", "details": "Peptide 30 μM, Thioperamide 0.3 μM", "protocol": "A segment of ileum obtained from Duncan Hartley derived male or female guinea pigs weighing 325±25 gms and sacrificed by CO2 overexposure were used. The tissue was placed under 0.5 g tension in a 10 ml bath containing Kreb's solution pH 7.4 and pyrilamine (0.3 μM) at 32° C. and subjected to field stimulation (70% of maximum voltage, 0.1 Hz, 0.5 millisecond). Test substance (30 μM)-induced reduction of isometrically recorded contractions 50 percent or more (≧50%) within 5 minutes, relative to control 0.3 μM R-α-methylhistamine response, indicated possible histamine H3 receptor agonist activity. At a test substance concentration where no significant agonist activity was seen, ability to inhibit R-α-methylhistamine-induced response by 50 percent or more (≧50%) indicated histamine H3 receptor antagonist activity. Each concentration was tested on two separate preparations."}, "[2]": {"test_system": "oxazolone-induced ear swelling", "assay": "Immune Suppression, Cellular (oxazolone ear thickness)", "type": "in vivo, mouse", "details": "IP, Peptide 100 mg/kg × 5, Cyclophosphamide 30 mg/kg × 5", "protocol": "(§1) For in vivo assay, distilled water and saline was used as vehicle in oral and intraperitoneal administration, respectively. Dosing volume was 20 ml/kg for mice or 10 ml/kg for rats.\nGroups of 5 ICR derived male mice weighing 22±1 gms were used. The preshaved abdominal surface was sensitized by application of oxazolone 0.1 ml of 5% solution. […] After additional four days, the animals were challenged by secondary application of oxazolone (0.025 ml of 5% solution) to the right ear. After a further 24 hours, each mouse was sacrificed and ear thickness measured with a Dyer Model micrometer gauge. A 30 percent or more (≧30%) decrease relative to the vehicle control group was considered significant and indicated possible immunosuppressant activity."}, "[3]": {"test_system": "PAF-induced mortality", "assay": "Platelet Activating Factor (PAF) Antagonism", "type": "in vivo, mouse", "details": "Peptide 100 mg/kg, WEB-2086 3 mg/kg", "protocol": "as §1\nGroups of 5 male ICR mice weighing 22±2 gms were employed. At dose of 100 mg/kg test substance dissolved in a vehicle of distilled water were administered orally. The control group received vehicle alone. At 60 minutes after dosing, the animals were injected intravenously PAF-acether ([…] IV, dissolved in 0.25% BSA). One hour later, the survival animals were recorded. The prevention of PAF-induced mortality in 50 percent or more (≧50%) of mice indicated significant activity."}, "[4]": {"test_system": "ovalbumin-induced bronchoconstriction", "assay": "Pulmonary, Histamine H3 (ovalbumin-induced bronchoconstriction)", "type": "in vivo, guinea pig", "details": "Peptide PO 10 mg/kg, R-α-methylhistamine IV 30 mg/kg", "protocol": "as §1\nA group of Duncan Hartley derived male or female guinea pigs weighing 250±50 gms were anesthetized with pentobarbital sodium (50 mg/kg IP plus an additional 15 mg/kg IP if required) and succinylcholine chloride (2 mg/animal IP) was subsequently administered to prevent spontaneous respiration. Body temperature was maintained at 37° to 38° C. The trachea was cannulated and the guinea pig ventilated with a Harvard rodent respirator in a closed system. Tracheal pressure (TP) was recorded through a side-arm of the cannula connected to a P23ID Statham transducer. Respiratory rate set at 50 strokes/minute with a stroke volume (approximately 1 ml/100 g) sufficient to produce a baseline tracheal pressure of 6 cm H2O. Mean arterial pressure was monitored from a cannulated carotid artery, and heart rate was obtained from chest electrodes arranged for lead II. The jugular vein was cannulated for IV vehicle or drug administration in a volume of 1 ml/kg. Guinea pigs were sensitized with IP injections of ovalbumin 0.5 μg+Al(OH)3 1 mg (0.5 ml/animal) on days 1, and boosted with same dosage of ovalbumin and Al(OH)3 vaccine on day 8; and the animals were ready to be challenged between days 19 and 23 to get a submaximal ovalbumin (50 μg/kg IV)-induced bronchoconstriction, reflected as an increase in tracheal pressure (cm H2O). […]. Test substances were administered PO (10 mg/kg) at 60 minutes before ovalbumin (50 μg/kg IV) challenge in 3 guinea pigs. Tracheal pressure, blood pressure and heart rate were measured immediately before and after ovalbumin challenge."}, "[5]": {"test_system": "Sarcoma 180 tumor", "assay": "Anti-Cancer Activity Against Mouse Tumor Sarcoma 180", "type": "in vivo", "details": "10 mg/kg, listed as natural peptide", "protocol": "This model has been used extensively as indicative of neovascularization in mammals inasmuch as the tumor so implanted is quickly vascularizing.\nExperimental Design: All mice were weighed at test initiation and test termination. The animals were divided into three groups. The Sarcoma 180 tumor was made up from a passage mouse to furnish […] per 0.1 mL inoculum. The cells were injected into the left leg hamstring muscle mass. The was delivered to the mice by I.P. injections, or gavage on days 1-5.\nAt the termination of the experiments, the mice were weighed and the left rear leg was amputated at the thigh. The skin was removed from the leg to expose the site at which the tumor was located. […]."}, "[6]": {"test_system": "vasculature of chick embryos", "assay": "CAM assay", "type": "in vivo", "protocol": "Method: The method used was that described in D. Knighton, D. Ausprunk, D. Tapper, and J. Folkman, “Avascular and Vascular Phases of Tumour Growth in the Chick Embryo.” J. Cancer 35:347-355 (1977) Procedure: The test compounds were suspended in sterile saline and then applied to methylcellulose discs, ¼ inch diameter with a micropipette and allowed to air dry at a concentration of 10 μg/disc.\nThe test was graded as follows:\nThe following scores are based on the observation of at least 10 chick embryos."}}, "note": "Several values for one entry are separate records, joined by “and”; a condition that tells them apart may be missing. Equal values may be shown once.", "data": [{"substance": "LEU-PRO-PRO-SER-ARG [Peptide]", "values": [{"measurement": "Agonism, Ave.", "setting": "[1]; average of two preparations, R(α)-Methylhistamine 0.3 μM", "value": 4, "unit": "%"}, {"measurement": "Antagonism, Ave.", "setting": "[1]; average of two preparations", "value": 4, "unit": "%"}, {"measurement": "Antagonism", "setting": "[1]; individual preparation, reduction of 0.3 μM R(α)-methylhistamine-induced relaxation", "value": "7% and 0%"}, {"measurement": "Agonism", "setting": "[1]; individual preparation, relaxation within 5 minutes relative to 0.3 μM R-α-methylhistamine, R(α)-Methylhistamine 0.3 μM (0.1 printed in r13)", "value": "0% and 4%"}, {"measurement": "% INH.", "setting": "[2]; decrease of net ear thickness relative to vehicle control", "value": 17, "unit": "%"}, {"measurement": "Thickness Net, X (group mean)", "setting": "[2]; group mean", "value": 23.0, "unit": "× 0.1 mm"}, {"measurement": "Thickness Net", "setting": "[2]; individual mouse, R. Ear minus L. Ear", "value": "20 × 0.1 mm and 21 × 0.1 mm and 24 × 0.1 mm and 27 × 0.1 mm"}, {"measurement": "Thickness R. Ear", "setting": "[2]; individual mouse, challenged right ear, 24 hours after oxazolone challenge", "value": "43 × 0.1 mm (2×) and 44 × 0.1 mm and 50 × 0.1 mm"}, {"measurement": "Thickness L. Ear", "setting": "[2]; individual mouse, left ear", "value": "23 × 0.1 mm (2×) and 22 × 0.1 mm and 20 × 0.1 mm"}, {"measurement": "% Protection", "setting": "[3]; PO one hour before PAF-acether 100 μg/kg IV", "value": 0, "unit": "%"}, {"measurement": "No. of Survival", "setting": "[3]; of 5 mice, one hour after PAF-acether 100 μg/kg IV, PO one hour before", "value": 0}, {"measurement": "Inc. of TP X ± SEM", "setting": "[4]; group mean, N=3", "value": "31.5 ± 2.3", "unit": "cm H2O"}, {"measurement": "Inc. of TP Ind.", "setting": "[4]; individual guinea pig, tracheal pressure after ovalbumin 50 μg/kg IV", "value": "27.5 cm H2O and 35.5 cm H2O and 31.5 cm H2O"}, {"measurement": "% INH.", "setting": "[4]; inhibition of induced bronchoconstriction relative to vehicle", "value": "−6.8", "unit": "%"}, {"measurement": "% tumor inhibition", "setting": "[5]; I.P. injections or gavage on days 1-5, 6 mice", "value": 99.0, "unit": "%"}, {"measurement": "Mean tumor wt. gain, gm", "setting": "[5]; net tumor weight, I.P. injections or gavage on days 1-5, 6 mice", "value": 0.03, "unit": "gm"}, {"measurement": "CAM assay antiangiogenesis score", "setting": "[6]; 10 μg/disc on methylcellulose discs, at least 10 chick embryos, graded 0 to +4", "value": 3.6}, {"measurement": "inhibited proliferation of vacularization", "setting": "[6]; CAM assay, 10 μg/disc", "value": "approximately 95%"}]}]}
